Measurements published in the NIST ThermoML archive (doi:10.1016/j.tca.2009.07.006).
± gives the expanded uncertainty stated by the source.

Assays:
[1] = xn = mol fraction of the nth substance listed; settings: 101 kPa, Liquid
[2] = molar heat capacity at constant pressure; xn = mol fraction of the nth substance listed; settings: 101 kPa, Liquid, Small sample (50 mg) DSC

CCOS(=O)(=O)[O-].CCn1cc[n+](C)c1 [1-ethyl-3-methylimidazolium ethyl sulfate] + O
Settings	electrical conductivity, x1 = 0.2 [S/m]	electrical conductivity, x1 = 0.4 [S/m]	electrical conductivity, x1 = 0.6 [S/m]	electrical conductivity, x1 = 0.8 [S/m]	molar heat capacity at constant pressure, x1 = 0.2 [J/K/mol]	molar heat capacity at constant pressure, x1 = 0.4 [J/K/mol]	molar heat capacity at constant pressure, x1 = 0.6 [J/K/mol]	molar heat capacity at constant pressure, x1 = 0.8 [J/K/mol]
[1], 293.2 K	2.17 ± 0.042	1.23 ± 0.036	0.74 ± 0.012	0.466 ± 0.014	–	–	–	–
[1], 298.2 K	2.53 ± 0.02	1.44 ± 0.008	0.881 ± 0.014	0.569 ± 0.01	–	–	–	–
[1], 303.2 K	2.95 ± 0.03	1.695 ± 0.004	1.05 ± 0.016	0.696 ± 0.008	–	–	–	–
[1], 308.2 K	3.387 ± 0.03	1.95 ± 0.001	1.25 ± 0.022	0.837 ± 0.01	–	–	–	–
[1], 313.2 K	3.85 ± 0.04	2.243 ± 0.012	1.45 ± 0.028	0.991 ± 0.01	–	–	–	–
[1], 318.2 K	4.34 ± 0.05	2.563 ± 0.012	1.67 ± 0.038	1.159 ± 0.01	–	–	–	–
[1], 323.2 K	4.86 ± 0.08	2.9 ± 0.02	1.91 ± 0.04	1.342 ± 0.012	–	–	–	–
[1], 328.2 K	5.4 ± 0.076	3.257 ± 0.012	2.15 ± 0.062	1.54 ± 0.012	–	–	–	–
[1], 333.2 K	5.93 ± 0.084	3.617 ± 0.024	2.41 ± 0.072	1.746 ± 0.012	–	–	–	–
[1], 338.2 K	6.5 ± 0.07	3.997 ± 0.012	2.69 ± 0.088	1.94 ± 0.001	–	–	–	–
[1], 343.2 K	7.07 ± 0.092	4.393 ± 0.012	2.99 ± 0.11	2.173 ± 0.012	–	–	–	–
[1], 348.2 K	7.64 ± 0.08	4.793 ± 0.012	3.28 ± 0.04	2.417 ± 0.012	–	–	–	–
[1], 353.2 K	8.24 ± 0.072	5.207 ± 0.03	3.62 ± 0.12	2.673 ± 0.024	–	–	–	–
[2], 303.2 K	–	–	–	–	146.4 ± 2.3	218.8 ± 4.5	290 ± 4.5	359.1 ± 6
[2], 308.2 K	–	–	–	–	147.5 ± 2.3	220.3 ± 3.5	291.4 ± 4.5	360.8 ± 6.1
[2], 313.2 K	–	–	–	–	148.7 ± 2.3	221.6 ± 3.7	292.8 ± 4.5	362.3 ± 5.6
[2], 318.2 K	–	–	–	–	149.5 ± 2.3	223.1 ± 3.5	294.4 ± 4.6	364 ± 5.6
[2], 323.2 K	–	–	–	–	150.8 ± 2.3	224.7 ± 3.5	295.9 ± 4.6	365.7 ± 5.7
[2], 328.2 K	–	–	–	–	151.9 ± 2.4	226.1 ± 3.5	297.5 ± 4.6	367.5 ± 5.7
[2], 333.2 K	–	–	–	–	153.2 ± 2.4	227.8 ± 3.5	298.9 ± 4.6	369.3 ± 5.7
[2], 338.2 K	–	–	–	–	154.7 ± 2.4	229.4 ± 3.6	300.6 ± 4.7	371.5 ± 5.8
[2], 343.2 K	–	–	–	–	155.9 ± 2.7	231 ± 3.6	302.2 ± 4.7	373.2 ± 5.8
[2], 348.2 K	–	–	–	–	157.2 ± 2.9	232.8 ± 3.6	304 ± 4.7	375.5 ± 5.8
[2], 353.2 K	–	–	–	–	158.4 ± 3.1	234.6 ± 3.6	305.8 ± 4.7	377.5 ± 5.9

CCn1cc[n+](C)c1.O=S(=O)([O-])C(F)(F)F [1-ethyl-3-methylimidazolium trifluoromethanesulfonate] + O
Settings	electrical conductivity, [1] [S/m]	molar heat capacity at constant pressure, [2] [J/K/mol]
293.2 K, x1 = 0.2	3.437 ± 0.012	–
293.2 K, x1 = 0.4	2.35 ± 0.042	–
293.2 K, x1 = 0.6	1.64 ± 0.026	–
293.2 K, x1 = 0.8	1.17 ± 0.05	–
298.2 K, x1 = 0.2	3.927 ± 0.012	–
298.2 K, x1 = 0.4	2.67 ± 0.06	–
298.2 K, x1 = 0.6	1.86 ± 0.028	–
298.2 K, x1 = 0.8	1.34 ± 0.042	–
303.2 K, x1 = 0.1	–	102.6 ± 1.7
303.2 K, x1 = 0.2	4.47 ± 0.02	133.3 ± 2.1
303.2 K, x1 = 0.4	3.05 ± 0.07	197.5 ± 4.6
303.2 K, x1 = 0.6	2.12 ± 0.034	260.1 ± 4.2
303.2 K, x1 = 0.8	1.56 ± 0.054	320.1 ± 5
303.2 K, x1 = 0.9	–	351 ± 5.4
308.2 K, x1 = 0.1	–	103 ± 2
308.2 K, x1 = 0.2	5.037 ± 0.03	134.1 ± 2.1
308.2 K, x1 = 0.4	3.46 ± 0.06	198.7 ± 5.2
308.2 K, x1 = 0.6	2.42 ± 0.042	261.6 ± 4.1
308.2 K, x1 = 0.8	1.79 ± 0.06	321.9 ± 5
308.2 K, x1 = 0.9	–	352.7 ± 5.5
313.2 K, x1 = 0.1	–	103.4 ± 2
313.2 K, x1 = 0.2	5.613 ± 0.012	134.7 ± 2.1
313.2 K, x1 = 0.4	3.87 ± 0.07	199.9 ± 3.6
313.2 K, x1 = 0.6	2.73 ± 0.042	263.2 ± 4.8
313.2 K, x1 = 0.8	2.01 ± 0.05	323.7 ± 5
313.2 K, x1 = 0.9	–	354.8 ± 5.5
318.2 K, x1 = 0.1	–	103.8 ± 2
318.2 K, x1 = 0.2	6.213 ± 0.024	135.5 ± 2.1
318.2 K, x1 = 0.4	4.31 ± 0.06	201.3 ± 3.1
318.2 K, x1 = 0.6	3.047 ± 0.012	264.5 ± 4.1
318.2 K, x1 = 0.8	2.27 ± 0.07	325.4 ± 5
318.2 K, x1 = 0.9	–	356.7 ± 5.5
323.2 K, x1 = 0.1	–	104.3 ± 1.9
323.2 K, x1 = 0.2	6.837 ± 0.03	136.4 ± 2.2
323.2 K, x1 = 0.4	4.77 ± 0.06	202.4 ± 3.1
323.2 K, x1 = 0.6	3.393 ± 0.024	266 ± 4.1
323.2 K, x1 = 0.8	2.55 ± 0.072	327.3 ± 5.1
323.2 K, x1 = 0.9	–	358.4 ± 5.6
328.2 K, x1 = 0.1	–	105 ± 1.9
328.2 K, x1 = 0.2	7.47 ± 0.034	137.1 ± 2.3
328.2 K, x1 = 0.4	5.24 ± 0.07	203.8 ± 3.2
328.2 K, x1 = 0.6	3.757 ± 0.03	267.6 ± 4.4
328.2 K, x1 = 0.8	2.84 ± 0.09	329.1 ± 5.5
328.2 K, x1 = 0.9	–	360.2 ± 5.6
333.2 K, x1 = 0.1	–	105.5 ± 2
333.2 K, x1 = 0.2	8.113 ± 0.024	138 ± 2.4
333.2 K, x1 = 0.4	5.72 ± 0.09	205.2 ± 3.2
333.2 K, x1 = 0.6	4.127 ± 0.03	269.1 ± 4.2
333.2 K, x1 = 0.8	3.14 ± 0.092	331.1 ± 6.3
333.2 K, x1 = 0.9	–	362 ± 5.6
338.2 K, x1 = 0.1	–	106.1 ± 1.9
338.2 K, x1 = 0.2	8.76 ± 0.02	138.8 ± 2.4
338.2 K, x1 = 0.4	6.22 ± 0.084	206.4 ± 3.5
338.2 K, x1 = 0.6	4.513 ± 0.042	270.9 ± 4.2
338.2 K, x1 = 0.8	3.46 ± 0.092	332.7 ± 6.3
338.2 K, x1 = 0.9	–	364 ± 5.6
343.2 K, x1 = 0.1	–	106.4 ± 2.1
343.2 K, x1 = 0.2	9.413 ± 0.012	139.8 ± 2.4
343.2 K, x1 = 0.4	6.71 ± 0.08	207.7 ± 4.2
343.2 K, x1 = 0.6	4.903 ± 0.042	272.3 ± 4.2
343.2 K, x1 = 0.8	3.78 ± 0.1	334.6 ± 6.5
343.2 K, x1 = 0.9	–	365.9 ± 5.8
348.2 K, x1 = 0.1	–	107 ± 1.8
348.2 K, x1 = 0.2	10.05 ± 0.02	140.6 ± 2.4
348.2 K, x1 = 0.4	7.22 ± 0.088	208.9 ± 4.1
348.2 K, x1 = 0.6	5.307 ± 0.05	273.8 ± 4.9
348.2 K, x1 = 0.8	4.13 ± 0.13	336.4 ± 6.5
348.2 K, x1 = 0.9	–	368 ± 5.7
353.2 K, x1 = 0.1	–	107.5 ± 1.8
353.2 K, x1 = 0.2	10.71 ± 0.042	141.5 ± 2.7
353.2 K, x1 = 0.4	7.75 ± 0.09	210.1 ± 5.5
353.2 K, x1 = 0.6	5.743 ± 0.03	275.5 ± 4.3
353.2 K, x1 = 0.8	4.48 ± 0.09	338.2 ± 6.5
353.2 K, x1 = 0.9	–	369.8 ± 6.1
